Experimental data taken from ChEMBL document CHEMBL4270607, “Identification of crizotinib derivatives as potent SHIP2 inhibitors for the treatment of Alzheimer's disease” (Eur J Med Chem, 2018).
Calls of active or inactive are those of the source. The calls are words filed in the database; no cut-off is given here.

Key:
[1] = target: T1, Phosphatidylinositol 3,4,5-trisphosphate 5-phosphatase 2 (Mus musculus) (UniProt Q6P549); assay: Inhibition of SHIP2 in H2O2-stimulated mouse HT22 cells assessed as decrease in PI(3,4)P2 production at 10 uM incubated for 30 mins followed by H2O2 stimulation for 5 mins in presence of PTEN inhibitor VO-Ohpic trihydrate by ELISA
T1 sequence (whole entry): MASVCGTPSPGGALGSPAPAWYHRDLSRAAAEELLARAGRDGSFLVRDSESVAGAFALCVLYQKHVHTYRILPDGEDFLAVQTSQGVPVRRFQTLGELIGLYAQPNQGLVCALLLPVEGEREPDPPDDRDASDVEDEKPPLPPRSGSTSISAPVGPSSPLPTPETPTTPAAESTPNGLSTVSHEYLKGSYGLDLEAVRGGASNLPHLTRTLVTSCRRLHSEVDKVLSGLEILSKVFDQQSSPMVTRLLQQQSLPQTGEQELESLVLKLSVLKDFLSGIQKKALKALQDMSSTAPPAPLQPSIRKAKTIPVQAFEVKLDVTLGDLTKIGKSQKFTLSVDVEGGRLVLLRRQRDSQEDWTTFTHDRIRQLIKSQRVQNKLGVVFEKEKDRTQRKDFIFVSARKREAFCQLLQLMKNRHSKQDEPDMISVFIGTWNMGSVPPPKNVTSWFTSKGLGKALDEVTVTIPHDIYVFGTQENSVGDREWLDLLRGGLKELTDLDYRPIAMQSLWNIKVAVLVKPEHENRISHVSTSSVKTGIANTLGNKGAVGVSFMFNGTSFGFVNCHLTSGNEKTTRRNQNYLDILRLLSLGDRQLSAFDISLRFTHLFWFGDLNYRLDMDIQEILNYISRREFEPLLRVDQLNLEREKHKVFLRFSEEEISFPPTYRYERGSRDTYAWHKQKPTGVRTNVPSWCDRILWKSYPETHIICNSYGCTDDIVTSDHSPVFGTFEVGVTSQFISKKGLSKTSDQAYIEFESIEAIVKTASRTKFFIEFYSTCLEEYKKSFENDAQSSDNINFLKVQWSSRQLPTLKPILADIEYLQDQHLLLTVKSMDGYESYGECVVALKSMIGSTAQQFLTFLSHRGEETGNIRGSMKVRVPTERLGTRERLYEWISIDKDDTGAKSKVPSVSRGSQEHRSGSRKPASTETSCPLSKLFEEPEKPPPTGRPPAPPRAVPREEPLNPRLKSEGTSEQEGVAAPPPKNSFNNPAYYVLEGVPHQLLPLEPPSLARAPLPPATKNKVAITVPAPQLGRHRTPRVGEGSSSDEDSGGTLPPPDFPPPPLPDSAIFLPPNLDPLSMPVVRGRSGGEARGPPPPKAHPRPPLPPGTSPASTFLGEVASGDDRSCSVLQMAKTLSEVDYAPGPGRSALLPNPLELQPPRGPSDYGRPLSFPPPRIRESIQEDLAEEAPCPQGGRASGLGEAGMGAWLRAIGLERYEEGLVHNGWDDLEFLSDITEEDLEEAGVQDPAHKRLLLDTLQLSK

[2] = Tmax in Sprague-Dawley rat at 2 mg/kg, iv administered as single dose by LC-MS/MS analysis; assay type: ADME, organism-based; details: in vivo
[3] = AUC (0 to infinity) in Sprague-Dawley rat at 2 mg/kg, iv administered as single dose by LC-MS/MS analysis; assay type: ADME, organism-based; parameters: dose 2 mg/kg, time infinity, route intravenous; details: in vivo
[4] = Half life in Sprague-Dawley rat at 10 mg/kg, po administered as single dose by LC-MS/MS analysis; assay type: ADME, organism-based; details: in vivo
[5] = Tmax in Sprague-Dawley rat at 10 mg/kg, po administered as single dose by LC-MS/MS analysis; assay type: ADME, organism-based; details: in vivo
[6] = AUC (0 to infinity) in Sprague-Dawley rat at 10 mg/kg, po administered as single dose by LC-MS/MS analysis; assay type: ADME, organism-based; parameters: dose 10 mg/kg, route oral, time infinity; details: in vivo
[7] = MRT (0 to t) in Sprague-Dawley rat at 10 mg/kg, po administered as single dose by LC-MS/MS analysis; assay type: ADME, organism-based; details: in vivo
[8] = Drug uptake in blood of Sprague-Dawley rat at 5 mg/kg, iv measured at 1 hr by LC-MS/MS analysis; assay type: ADME, organism-based; details: read-out: Drug uptake
[9] = Drug uptake in brain of Sprague-Dawley rat at 5 mg/kg, iv measured at 1 hr by LC-MS/MS analysis; assay type: ADME, organism-based; details: read-out: Drug uptake
[10] = Drug uptake in blood of Sprague-Dawley rat at 5 mg/kg, iv measured at 5 hrs by LC-MS/MS analysis; assay type: ADME, organism-based; details: read-out: Drug uptake

inhibition [1]: Active
Tmax [2]: 4.8 min
AUC(0-inf) [3]: 1720 ng·h/mL
half-life [4]: 1.53 h
Tmax [5]: 1.75 h
AUC(0-inf) [6]: 2880 ng·h/mL
MRT last [7]: 3.06 h
concentration at 1 h [8]: 1180 ng/mL
concentration at 1 h [9]: 2730 ng/mL
concentration at 5 h [10]: 89.4 ng/mL
SMILES: C[C@@H](Oc1cncc(-c2cnc(N)nc2)c1)c1c(Cl)ccc(F)c1Cl
